{"source": "patent US20230381176A1", "about": "“A PHARMACEUTICAL COMPOSITION AND USE THEREOF FOR TREATMENT OF CANCER” (Ascentage Pharma (Suzhou) Co., Ltd., priority 2020, published 2023)", "key": {"[1]": {"tested_on": "PTK2 high ovarian PDX OV2018", "assay": "PTK2 high ovarian PDX model OV2018, Compound 5 and paclitaxel", "format": "in vivo, mouse", "method": "(§1) A subcutaneous xenograft tumor model of human tumor immunodeficient mice was established by cell inoculation: tumor cells in logarithmic growth phase were collected, counted, resuspended in 1×PBS, and the cell suspension concentration was adjusted to 2.5-5 ×10^7/mL. The tumor cells were inoculated subcutaneously in the right side of immunodeficient mice with a 1 mL syringe ([…]), 5-10×10^6/0.2 mL/mouse. All animal experiments were strictly in accordance with the specifications for the use and management of experimental animals in GenePharma Co., Ltd. and Suzhou Ascentage Pharma Co., Ltd. The calculation of relevant parameters refers to the Chinese NMPA “Guidelines for Non-Clinical Research Techniques of Cytotoxic Anti-tumor Drugs”.\n(§2) Animal body weight and tumor size were measured twice weekly during the experiment. The state of the animal and the presence or absence of death were observed every day. The growth of tumor and the effects of treatment on normal behavior of animals were monitored routinely, specifically involving experimental animal activity, feeding and drinking, weight gain or loss, eyes, clothing hair and other abnormalities. The deaths and clinical symptoms observed during the experiment were recorded in the raw data. All operations for administration and measurement of mouse body weight and tumor volume were performed in a clean bench. According to the requirements of the experimental protocol, after the end of the last administration, plasma and tumor tissues were collected, weighed and photographed. The plasma and tumor samples were frozen at −80° C. for ready-to-use.\n(§3) Tumor volume (TV) is calculated as: TV=a×b^2/2, wherein a and b represent the length and width of the tumor to be measured, respectively.\n(§4) The relative tumor volume (RTV) is calculated as: RTV=Vt/V1, wherein V1 is the tumor volume at the start of grouping and administration, and Vt is the tumor volume measured on the t day after administration.\n(§5) Change of body weight (%)=(measured body weight−body weight at the start of grouping)/body weight at the start of grouping×100%.\n(§6) A dose of drug is considered to be severely toxic if the body weight of mouse is reduced by more than 20% or the number of drug-related deaths exceeds 20%.\n(§7) According to the description by Clarke R., Issues in experimental design and endpoint analysis in the study of experimental cytotoxic agents in vivo in breast cancer and other models [J]. Breast Cancer Research & Treatment, 1997, 46(2-3): 255-278, synergy analysis was evaluated using the following formula: synergy factor=((A/C)×(B/C))/(AB/C); A=RTV value of drug A alone group; B=RTV value of drug B alone group; C=RTV value of the solvent control group, and AB=RTV value of the A and B combination group.\n(§8) Use of mRECIST (Gao et al., 2015) measured tumor responses included stable disease (SD), partial tumor regression (PR), and complete regression (CR), determined by comparing tumor volume change at day t to its baseline: tumor volume change (%)=(Vt−V1)/V1. The BestResponse was the minimum value of tumor volume change (%) for t≥10. For each time t, the average of tumor volume changes from t=1 to t was also calculated. BestAvgResponse was defined as the minimum value of this average for t≥10. The criteria for response (mRECIST) were adapted from RECIST criteria (Gao et al., 2015; Therasse et al., 2000) and defined as follows: mCR, BestResponse<−95% and BestAvg Response<−40%; mPR, BestResponse<−50% and BestAvgResponse<−20%; mSD, BestResponse<35% and BestAvgResponse<30%; mPD, not otherwise categorized. SD, PR, and CR were considered responders and used to calculate response rate (%). […] Body weight of animals were monitored simultaneously. The change in body weight was calculated based on the animal weight of the first day of dosing (day 1). Tumor volume and changes in body weight (%) were represented as the mean±standard error of the mean (SEM)."}, "[2]": {"tested_on": "PTK2 high NSCLC PDX LU-01-0604", "assay": "s.c. PTK2 high NSCLC PDX model LU-01-0604, Compound 5 and carboplatin", "format": "in vivo, mouse", "method": "as §1, §2, §3, §4\nThe evaluation index of anti-tumor activity is the relative tumor proliferation rate T/C (%), and the calculation formula thereof is: relative tumor proliferation rate T/C (%)=(TRTV/CRTV)×100%, TRTV is the RTV of treatment group, CRTV is the RTV of solvent control group.\nas §5, §6, §7\nas §8, with “The change in body weight was calculated based on the animal weight of the first day of dosing (day 1). Tumor volume and changes in body weight (%) were represented as the mean±standard error of the mean (SEM).” left out"}, "[3]": {"tested_on": "colon CT26 syngeneic tumor", "assay": "s.c. syngeneic tumor model of colon CT26, Compound 5 and anti-PD-1 antibody", "format": "in vivo", "conditions": "for RTV on Day 12 after administration (mean ± standard error) / T/C on Day 12 after administration (%): alone or with anti-PD-1 10 mg/kg i.p. twice weekly"}, "[4]": {"tested_on": "PTK2 high ovarian PDX OV2423", "assay": "PTK2 high ovarian PDX model OV2423, Compound 5 and carboplatin and/or paclitaxel", "format": "in vivo, mouse", "method": "as §1, §2, §3, §4, §5, §6, §7, §8"}, "[5]": {"conditions": "Compound 5 50 mg/kg orally once per day, paclitaxel 10 mg/kg i.v. once a week, 35 days"}, "[6]": {"conditions": "Compound 5 50 mg/kg orally once per day, carboplatin 30 mg/kg i.p. once per week, 29 days"}, "[7]": {"conditions": "Compound 5 30 mg/kg orally once per day"}, "[8]": {"conditions": "Compound 5 100 mg/kg orally once per day"}, "[9]": {"conditions": "Compound 5 50 mg/kg orally once per day, carboplatin 30 mg/kg i.p. once a week, paclitaxel 10 mg/kg i.v. once a week, 28 days"}}}
{"compound": "Cc1cc(Nc2ncc(Cl)c(Nc3ccccc3S(=O)(=O)C(C)C)n2)c(OC(C)C)cc1C1=CCN(C2CCOCC2)CC1", "note": "[Compound 5, 5-chloro-N^2-(2-isopropoxy-5-methyl-4-(1-(tetrahydro-2H-pyran-4-yl)-1,2,3,6-tetrahydropyridin-4-yl)phenyl)-N^4-(2-(isopropylsulfonyl)phenyl)pyrimidine-2,4-diamine]", "values": [{"measurement": "RTV on Day 35 after administration (mean ± standard error)", "setting": "[1]; [5]", "value": "3.94 ± 0.41"}, {"measurement": "T/C on Day 35 after administration (%)", "setting": "[1]; [5]", "value": 162.80, "unit": "%"}, {"measurement": "mRECIST on Day 35 after administration", "setting": "[1]; Day 35, animals per class", "value": "2/2 PD"}, {"measurement": "mRECIST", "setting": "[1]; best response, animals per class", "value": "2/2 PD"}, {"measurement": "antitumor activity (conclusion in words)", "setting": "[1]; mouse, in vivo", "value": "no antitumor activity"}, {"measurement": "RTV on Day 29 after administration (mean ± standard error)", "setting": "[2]; [6]", "value": "8.25 ± 1.03"}, {"measurement": "T/C on Day 29 after administration (%)", "setting": "[2]; [6]", "value": 94.50, "unit": "%"}, {"measurement": "mRECIST", "setting": "[2]; animals per class", "value": "2/2 PD"}, {"measurement": "antitumor activity (conclusion in words)", "setting": "[2]; mouse, in vivo", "value": "no antitumor activity"}, {"measurement": "RTV on Day 12 after administration (mean ± standard error)", "setting": "[3]; [7]", "value": "29.9 ± 4.2"}, {"measurement": "T/C on Day 12 after administration (%)", "setting": "[3]; [7]", "value": 102.75, "unit": "%"}, {"measurement": "RTV on Day 12 after administration (mean ± standard error)", "setting": "[3]; [8]", "value": "22.5 ± 2.2"}, {"measurement": "T/C on Day 12 after administration (%)", "setting": "[3]; [8]", "value": 77.32, "unit": "%"}, {"measurement": "antitumor activity (conclusion in words)", "setting": "[3]; mouse, in vivo", "value": "no antitumor activity"}, {"measurement": "RTV on Day 28 after administration (mean ± standard error)", "setting": "[4]; [9]", "value": "14.83 ± 3.19"}, {"measurement": "T/C on Day 28 after administration (%)", "setting": "[4]; [9]", "value": 78.97, "unit": "%"}, {"measurement": "mRECIST", "setting": "[4]; animals per class", "value": "2/2 PD"}, {"measurement": "antitumor activity (conclusion in words)", "setting": "[4]; mouse, in vivo", "value": "minor antitumor activity"}]}
